Values quoted from earlier work in patent publication US20060057174A1, “Natural-non-toxic insect repellant” (priority 2004, published 2006).

Test system: Aedes aegypti
Details: ingredients of Skin-So-Soft bath oil

For `O=C(c1ccccc1)c1ccccc1` [benzophenone], the “repellent to Aedes aegypti” value is given as “repellent”.
In the case of `CC(C)OC(=O)CCCCC(=O)OC(C)C` [diisopropyl adipate], the “repellent to Aedes aegypti” value is given as “repellent”.
